Test results as given in patent US20110183925A1, “ANTI-INFLAMMATORY PEPTIDE” (NISSHIN PHARMA INC., priority 2008, published 2011).
Where no end group is shown, it is not given here. [ ]: non-standard residue; d: D form. pGlu = O=C1CC[C@@H](C(=O)O)N1

What was measured:
[1] = biological target: T1, Recombinant Human TACE (Homo sapiens, UniProt P78536); test: Measurement of TACE-inhibiting activity (fluorogenic substrate, HPLC quantification); format: biochemical; conditions: 1 mg/mL peptide sample, 10 μL in reaction; 37° C., 20 minutes; Control (No Peptide) = 100%; lower = more inhibition
T1 construct: purchased R&D Systems
T1 sequence (P78536 215-824): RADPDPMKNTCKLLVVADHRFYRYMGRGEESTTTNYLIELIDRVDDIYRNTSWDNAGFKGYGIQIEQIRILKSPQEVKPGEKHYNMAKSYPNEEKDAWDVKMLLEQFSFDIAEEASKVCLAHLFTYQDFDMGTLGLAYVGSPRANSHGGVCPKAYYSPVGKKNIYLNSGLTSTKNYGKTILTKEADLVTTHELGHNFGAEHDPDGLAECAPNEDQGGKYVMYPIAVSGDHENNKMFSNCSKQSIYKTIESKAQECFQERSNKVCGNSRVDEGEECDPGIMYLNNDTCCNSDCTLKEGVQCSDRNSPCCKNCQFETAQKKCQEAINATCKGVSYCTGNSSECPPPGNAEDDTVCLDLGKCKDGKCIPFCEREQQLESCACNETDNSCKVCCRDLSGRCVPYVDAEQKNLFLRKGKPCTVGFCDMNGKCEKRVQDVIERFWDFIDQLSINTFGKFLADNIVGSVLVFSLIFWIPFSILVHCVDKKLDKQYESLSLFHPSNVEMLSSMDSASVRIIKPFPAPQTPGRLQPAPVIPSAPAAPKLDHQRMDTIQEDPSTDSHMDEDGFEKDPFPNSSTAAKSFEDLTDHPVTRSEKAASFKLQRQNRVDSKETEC
Protocol: One mg/mL each of samples of pyroglutamyl peptides (pyroGlu-Leu, pyroGlu-Val, pyroGlu-Met, pyroGlu-Phe, pyroGlu-Gln-Gln, and pyroGlu-Pro-Gln) synthesized in Production Examples above were prepared and evaluated for TACE-inhibiting activity as follows.
Each sample (10 μL) was added to 10 μL of 1 μmol/L reactive substrate (TACE Substrate (Mac-PLAQAV-Dpa-RSSSR-NH2) from Biomol. International LP), 10 μL of 10 ng/10 μL enzyme solution (Recombinant Human TACE from R&D Systems), 50 μL of buffer (50 mmol/L Tris-HCl, pH 9.0, 5 μM ZnCl2, 0.01% Brij35), and 20 μL of distilled water, which was reacted at 37° C. for 20 minutes. Thereto was added 10% trifluoroacetic acid to a final concentration of 1% to stop the reaction. The substrate and the product were separated under the following conditions using reversed-phase high-performance liquid chromatography. The substrate and the product were fluorescently measured at an excitation wavelength of 320 nm and a measuring wavelength of 405 nm for quantification.
(§1) (Chromatography Condition)
(§2) Solution A: 10% acetonitrile (0.1% TFA)/Solution B: 80% acetonitrile (0.1% TFA)
(§3) Gradient: Solution B from 50% to 100%
(§4) Measuring Wavelength: 230 nm
The results are shown in Table 1 below as the ratio of the fluorescence intensity of the product to the fluorescence intensity of the product and the substrate.

[2] = biological target: T2, Caspase-1 (ICE) (Homo sapiens, UniProt P29466); test: Measurement of ICE-inhibiting activity (Ac-Trp-Glu-His-Asp-AMC substrate, HPLC quantification); format: biochemical; conditions: 1 mg/mL peptide sample, 5 μL in reaction; 37° C., 20 minutes; Control (No Peptide) = 100%; lower = more inhibition
T2 construct: purchased Biomol; International LP
T2 sequence (P29466 120-297 limits assumed): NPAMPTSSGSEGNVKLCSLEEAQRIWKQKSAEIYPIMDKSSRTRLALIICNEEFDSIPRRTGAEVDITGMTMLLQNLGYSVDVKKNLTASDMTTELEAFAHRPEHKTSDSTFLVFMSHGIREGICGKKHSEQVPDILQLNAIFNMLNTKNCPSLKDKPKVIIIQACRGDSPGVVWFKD
T2 sequence (P29466 317-404 limits assumed): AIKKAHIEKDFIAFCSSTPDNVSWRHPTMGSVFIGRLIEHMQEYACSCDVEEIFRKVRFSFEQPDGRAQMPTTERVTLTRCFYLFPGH
Protocol: One mg/mL each of samples of pyroglutamyl peptides (pyroGlu-Leu, pyroGlu-Val, pyroGlu-Met, pyroGlu-Phe, pyroGlu-Gln-Gln, and pyroGlu-Pro-Gln) synthesized in Production Examples above were prepared and evaluated for ICE-inhibiting activity as follows.
Each sample (5 μL) was added to 10 μL of 2,000 μmol/L reactive substrate (Caspase-1 substrate (Ac-Trp-Glu-His-Asp-AMC) from Alexis Biochemicals), 5 μL of 10 U/μl enzyme solution (Caspase-1 from Biomol. International LP), 60 μL of buffer (50 mmol/L HEPES, pH 7.4, 100 mM NaCl, 0.1% CHAPS, 1 mM EDTA, 10% glycerol, and 10 mM DTT), and 20 μL of distilled water, which was reacted at 37° C. for 20 minutes. Thereto was added 10% trifluoroacetic acid to a final concentration of 1% to stop the reaction. The substrate and the product were separated under the following conditions using reversed-phase high-performance liquid chromatography. The substrate and the product were fluorescently measured at an excitation wavelength of 380 nm and a measuring wavelength of 460 nm for quantification.
as §1, §2, §3, §4
The results are shown in Table 2 below as the ratio of the fluorescence intensity of the product to the fluorescence intensity of the product and the substrate.

Substance	ratio of the fluorescence intensity of the product to the fluorescence intensity of the product and the substrate (TACE reaction) [1] [%]	ratio of the fluorescence intensity of the product to the fluorescence intensity of the product and the substrate (ICE/caspase-1 reaction) [2] [%]
pyroGlu-Phe	84	72
[pGlu]-Gln-Gln	70	63
[pGlu]-Pro-Gln	66	62
[pGlu]-Met	83	75
[pGlu]-Val	81	74
[pGlu]-Leu	61	55
